# Measured values taken from PMC5653977 (EMBO Molecular Medicine, 2017).
# Structures can show the parent of a compound that is named as a salt.
# Tested on: NRG1-ERBB4 signaling
# Assay: Nrg1-ERBB4-PIK3R1 split TEV co-culture compound screen of the NIH Clinical Collection
# Type: cell-based, human
# Settings: NIH Clinical Collection NCC-003 raw data; compounds ranked by Z-score; 'flagged' given instead of a Z-score
row,Molecule,Z-SCORE
1,C=C1C[C@@H]2[C@H](CC[C@]3(C)C(=O)CC[C@@H]23)[C@@]2(C)C=CC(=O)C=C12 [EXEMESTANE],-1.23
2,MEDROXYPROGESTERONE,-2.38
3,COc1cccc2c1C(=O)c1c(O)c3c(c(O)c1C2=O)C[C@@](O)(C(=O)CO)C[C@@H]3O[C@H]1C[C@H](N)[C@@H](O)[C@H](C)O1 [EPIRUBICIN HYDROCHLORIDE],flagged
4,[H]/N=C(/NCCCCC)N/N=C/c1c[nH]c2ccc(OC)cc12 [TEGASEROD MALEATE],flagged

# Same assay, conditions: compound screen of the NIH Clinical Collection, sheet raw data NCC-003; compounds ranked by Z-score
row,Molecule,Z-SCORE
1,CN1CCC(=C2c3ccccc3C=Cc3ccccc32)CC1 [Cyproheptadine hydrochloride],0.2
2,Cn1nnc2c(C(N)=O)ncn2c1=O [TEMOZOLOMIDE],0.54
3,COc1ccc2[nH]cc(CCN)c2c1 [5-Methoxytryptamine],0.65
4,COc1ccc2[nH]cc(C3=CCNCC3)c2c1 [RU 24969],0.79
5,C[C@]12C/C(=C/O)C(=O)C[C@@H]1CC[C@@H]1[C@@H]2CC[C@@]2(C)[C@H]1CC[C@]2(C)O [Oxymetholone],1.79
6,"Cc1cn([C@H]2C=C[C@@H](CO)O2)c(=O)[nH]c1=O [STAVUDINE, reference compound]",0.08
7,N=C(N)NC(=O)c1nc(Cl)c(N)nc1N,0.85
8,CS(=O)(=O)O.O=C1CC2(CCCC2)CC(=O)N1CCNCC1COc2ccccc2O1 (stereo not drawn),0.35
9,N[C@@H](C(=O)N[C@@H]1C(=O)N2C(C(=O)O)=C(Cl)CS[C@H]12)c1ccccc1 [CEFACLOR],-0.62
10,"Cl.NC1CCN(c2cccc(Cl)n2)CC1 [SR 57,227A]",-0.24
11,COc1ccc2c3c1O[C@H]1C[C@@H](O)C=C[C@@]31CCN(C)C2 [Galanthamine],1.13
12,CCC(=O)[N-]S(=O)(=O)c1ccc(-c2c(-c3ccccc3)noc2C)cc1.[Na+] [PARECOXIB Na],-0.3
13,CC(=O)O[C@H]1C[C@@H]2CC[C@@H]3[C@H](CC[C@@]4(C)[C@H]3C[C@H]([N+]3(C)CCCCC3)[C@@H]4OC(C)=O)[C@@]2(C)C[C@@H]1N1CCCCC1 [VECURONIUM BROMIDE],0.97
14,NC(=O)N1c2ccccc2CC(=O)c2ccccc21 [Trileptal],0.62
15,CN1CCC(=C2c3ccccc3CCc3sccc32)CC1 [Pizotyline],-0.22
16,COc1ccc2[nH]c([S+]([O-])Cc3ncc(C)c(OC)c3C)nc2c1 (stereo not drawn) [OMEPRAZOLE],-0.26
17,CCOC(=O)C1(CCCCCCOc2ccc(Cl)cc2)CO1 (stereo not drawn),0.96

row,Molecule,Z-SCORE
1,CCN(C(C)=O)c1cccc(-c2ccnc3c(C#N)cnn23)c1 [Zaleplon],-0.02
2,Nc1nnc(-c2cccc(Cl)c2Cl)c(N)n1 [LAMOTRIGINE],0.3
3,CCc1nn(CCCN2CCN(c3cccc(Cl)c3)CC2)c(=O)n1CCOc1ccccc1 [Nefazodone],-0.63
4,C#C[C@]1(O)CC[C@H]2[C@@H]3CCc4cc(O)ccc4[C@H]3CC[C@@]21C [ETHYNYLESTRADIOL],0.75
5,CN1C2CCCC1CC(NC(=O)c1nn(C)c3ccccc13)C2 (stereo not drawn) [GRANISETRON HCl],0.21
6,Cc1nc2n(c(=O)c1CCN1CCC(c3noc4cc(F)ccc34)CC1)CCCC2 [RISPERIDONE],0
7,C#CCN(C)[C@H](C)Cc1ccccc1 [Selegiline hydrochloride],-0.57
8,O=c1n(CCCN2CCN(c3cccc(Cl)c3)CC2)nc2ccccn12 [TRAZODONE HYDROCHLORIDE],0.17
9,C[C@@H]1CN(CCCn2c3ccccc3c3ccccc32)C[C@H](C)N1 [Rimcazole],0.6
10,C[C@]12CC[C@@H]3c4ccc(OS(=O)(=O)[O-])cc4CC[C@H]3[C@@H]1CCC2=O.[Na+],0.37
11,COc1c(N2C[C@@H]3CCCN[C@@H]3C2)c(F)cc2c(=O)c(C(=O)O)cn(C3CC3)c12 [MOXIFLOXACIN HCl],-0.35
12,C[C@]12CC[C@H]3[C@@H](CCC4=CC(=O)CC[C@@H]43)[C@@H]1CC[C@@H]2O [nandrolone],-0.57
13,C#C[C@]1(O)CC[C@H]2[C@@H]3CCc4cc(OC)ccc4[C@H]3CC[C@@]21C [MESTRANOL],-0.21
14,CC1(C)S[C@@H]2[C@H](/N=C/N3CCCCCC3)C(=O)N2[C@H]1C(=O)O,1.1
15,COc1ccc(-c2cc(=O)c3c(OC)c(OC)c(OC)c(OC)c3o2)cc1OC [Nobiletin],-0.05
16,C[C@H]1O[C@H](O[C@H]2[C@H](O)[C@@H](O)[C@@H](O[C@H]3[C@H](O)[C@@H](O)C(O)O[C@@H]3CO)O[C@@H]2CO)[C@H](O)[C@@H](O)[C@@H]1N[C@H]1C=C(CO)[C@@H](O)[C@H](O)[C@H]1O (stereo partly drawn) [ACARBOSE],-0.8
17,CN(C)CCN(Cc1ccccc1)c1ccccn1 [TRIPELENNAMINE HYDROCHLORIDE],0.58

# Same assay, conditions: compounds at 10 μM, 24 h; PC12 split TEV assay cells co-cultured with Nrg1-expressing PC12 cells; analysed with cellHTS2
row,Molecule,Z-SCORE
1,"CC(COc1ccccc1)N(CCCl)Cc1ccccc1 (stereo not drawn) [Dibenzyline, reference compound]",-1.18
2,"O=C(N[C@H](CO)[C@H](O)c1ccc([N+](=O)[O-])cc1)C(Cl)Cl [Chloramphenicol, reference compound]",0.74
3,"CCC[C@@H]1C[C@@H](C(=O)N[C@@H]([C@H]2O[C@H](SC)[C@H](O)[C@@H](O)[C@H]2O)[C@@H](C)O)N(C)C1 [Lincomycin hydrochloride, reference compound]",0.53
4,"Cc1cn([C@H]2C=C[C@@H](CO)O2)c(=O)[nH]c1=O [STAVUDINE, reference compound]",0.2
5,"C[C@@](Cc1ccc(O)c(O)c1)(NN)C(=O)O [CARBIDOPA, reference compound]",-1.58
6,"Cc1cnc(C(=O)NCCc2ccc(S(=O)(=O)NC(=O)NC3CCCCC3)cc2)cn1 [GLIPIZIDE, reference compound]",0.73
7,"Oc1c(Cl)cc(Cl)c(Cl)c1Cc1c(O)c(Cl)cc(Cl)c1Cl [Hexachlorophene, reference compound]",flagged
8,"O=C(c1ccc(OCCN2CCCCC2)cc1)c1c(-c2ccc(O)cc2)sc2cc(O)ccc12 [Evista, reference compound]",1.2
9,"Cc1ccccc1C(OCCN(C)C)c1ccccc1 (stereo not drawn) [Norflex, reference compound]",0.74
10,"CCCC(CCC)C(=O)O [Valproic Acid, reference compound]",-1.05
11,"c1ccc2[nH]c(-c3cscn3)nc2c1 [THIABENDAZOLE, reference compound]",-1.42
12,"CCCC1O[C@@H]2C[C@H]3[C@@H]4CCC5=CC(=O)C=C[C@]5(C)[C@H]4[C@@H](O)C[C@]3(C)[C@]2(C(=O)CO)O1 (stereo partly drawn) [BUDESONIDE, reference compound]",-0.46
13,"COC(=O)Nc1nc2ccc(C(=O)c3ccccc3)cc2[nH]1 [Mebendazole, reference compound]",-4.63
14,"O=C(O)CCCc1ccc(N(CCCl)CCCl)cc1 [CHLORAMBUCIL, reference compound]",0.14
15,"CCCNC(C)C(=O)Nc1ccccc1C (stereo not drawn) [PRILOCAINE HYDROCHLORIDE, reference compound]",0.68
16,"CC(C)NCC(O)c1ccc(O)c(O)c1 (stereo not drawn) [Isuprel, reference compound]",-0.93
17,"O=c1[nH]c(=O)n([C@H]2C[C@H](O)[C@@H](CO)O2)cc1F [Floxuridine, reference compound]",-0.39

row,Molecule,Z-SCORE
1,"CC(=O)OCC(=O)[C@@]1(O)CC[C@H]2[C@@H]3CCC4=CC(=O)CC[C@]4(C)[C@H]3C(=O)C[C@@]21C [CORTISONE ACETATE, reference compound]",0.08
2,"CC(=O)OCC(=O)[C@@]1(O)CC[C@H]2[C@@H]3CCC4=CC(=O)C=C[C@]4(C)[C@H]3[C@@H](O)C[C@@]21C [PREDNISOLONE ACETATE, reference compound]",-0.58
3,"C[C@@H]1C[C@H]2[C@@H]3CCC4=CC(=O)C=C[C@]4(C)[C@@]3(F)[C@@H](O)C[C@]2(C)[C@@]1(O)C(=O)CO [Dexamethasone, reference compound]",0.88
4,"CCCCC(=O)O[C@]1(C(=O)CO)CC[C@H]2[C@@H]3CCC4=CC(=O)CC[C@]4(C)[C@H]3[C@@H](O)C[C@@]21C [Westcort, reference compound]",-0.71
5,"COC1=CC(=O)C[C@@H](C)[C@]12Oc1c(Cl)c(OC)cc(OC)c1C2=O [Griseofulvin, reference compound]",0.64
6,"C[C@]12CCC(=O)C=C1CC[C@@H]1[C@@H]2[C@@H](O)C[C@@]2(C)[C@H]1CC[C@]2(O)C(=O)CO [HYDROCORTISONE, reference compound]",-1.61
7,"CS(=O)(=O)OCCCCOS(C)(=O)=O [Busulfan, reference compound]",0.13
8,"CC(C)Cc1ccc(C(C)C(=O)O)cc1 (stereo not drawn) [IBUPROFEN, reference compound]",0.27
9,"C[C@H](CCC(=O)O)[C@H]1CC[C@H]2[C@@H]3[C@@H](O)C[C@@H]4C[C@H](O)CC[C@]4(C)[C@H]3CC[C@]12C [URSODEOXYCHOLIC ACID, reference compound]",-1.5
10,"C/C(=C\C(=O)OCCCCCCCCC(=O)O)C[C@@H]1OC[C@H](C[C@@H]2O[C@H]2[C@@H](C)[C@H](C)O)[C@@H](O)[C@H]1O [Mupirocin, reference compound]",0.71
11,"CC[C@H](C)C(=O)O[C@H]1C[C@@H](C)C=C2C=C[C@H](C)[C@H](CC[C@@H]3C[C@@H](O)CC(=O)O3)[C@H]21 [Lovastatin, reference compound]",flagged
12,"Nc1cc(N2CCCCC2)nc(N)[n+]1[O-] [Minoxidil, reference compound]",0.25
13,"Clc1ccc(COC(Cn2ccnc2)c2ccc(Cl)cc2Cl)c(Cl)c1 (stereo not drawn) [MICONAZOLE NITRATE, reference compound]",-0.69
14,"O=C1CC2(CCCC2)CC(=O)N1CCCCN1CCN(c2ncccn2)CC1 [Buspar, reference compound]",-0.01
15,"CCCCNc1cc(C(=O)O)cc(S(N)(=O)=O)c1Oc1ccccc1 [BUMETANIDE, reference compound]",-0.03
16,"CC(N)C12CC3CC(CC(C3)C1)C2 (stereo not drawn) [Flumadine, reference compound]",-0.97
17,"CCN(CC)CCOC(=O)c1ccc(N)cc1 [Novocain, reference compound]",-0.44
